We go through 6 compounds from patent publication EP0049913A2, “New ethenylimidazole derivatives, processes for their preparation and pharmaceutical compositions containing them; intermediates, useful in their preparation and a process for the preparation thereof” (GIST-BROCADES N.V., priority 1980, dated 1982).

Assay [1] relates to Candida albicans. Kind of assay: agar dilution test, Candida albicans. It counts as cell-based. The note with it: for Potency Ratio (P.R.) MIC 50 / Potency Ratio (P.R.) MIC 90: ratio to activity of miconazol (= 1). How it is done: (§1) The compounds of the invention were tested in vitro and in vivo. The in vitro activities were determined by means of the usual agar dilution test. The results after two and five days were expressed as MIC 50 and MIC 90, i.e. the minimum concentrations giving complete inhibition of 50% or 90% of the strains tested in […] and as Potency Ratio (P.R.), i.e. the ratio between the activity of the test compound and the activity of miconazol (= 1).
In general terms: In agar dilution the substance is mixed into plates at graded concentrations.

The subject of assay [2] is Trichophyton spp. Kind of assay: agar dilution test, Trichophyton spp. The note with it: 5 d, ratio to activity of miconazol (= 1). It counts as cell-based. Here is the method:
as §1

The subject of assay [3] is Candida albicans strain A 7. In words: method A: systemic infection with Candida albicans in mice. It is filed as in vivo. The note with it: three doses daily for 3 days, control animals = 1. How it is done:
A. Testing of compounds against systemic infection with Candida albicans in mice.
Female Swiss SPF mice, weighing […], ten animals per group, were challenged intravenously with 0.5 ml Candida albicans strain A 7 suspension containing sufficient yeast cells to kill 50% of the untreated animals within 5 days. The treatment consisted of three doses daily administered for 3 days either orally or intraperitoneally. Infected, non treated mice served as controls for mortality. The number of mice surviving the challenge was recorded daily and the ratio between the "median survival duration (days)" of the treated and untreated mice was determined, the survival duration of the control animals being graded as 1 (IMSD = Index Median Survival Duration).

The subject of assay [4] is Candida albicans strain A 7. In words: method B: vaginitis candidamycetica in mice (vaginal reduction). It counts as in vivo. The note with it: clotrimazol = 100%. Here is the method:
Female Swiss SPF mice, weighing 19-21 g, fifteen animals per group, following an intramuscular premedication by Dimenformon prolongatum, were inoculated intravaginally with +5.105 CFU of Candida albicans strain A 7, harvested from a culture on Mycological Agar and suspended in physiological saline.
The treatment commenced 72 hours after infection when the candidiasis had reached its peak. A four day local treatment period was employed, consisting of two applications daily of 0.02 ml of antimycotics in Plastibase intravaginally. Alternatively, the test compound was administered orally in three doses daily for three days.
On the seventh day after infection the mice were killed, the vagina was excised and homogenized in saline and cultivated on Mycological Agar. The yeast cells were then counted and expressed as CFU/vagina. Results were analysed statistically using the T-test. The results were compared with those obtained with clotrimazol, the action of which was considered as 100%.

Assay [5] deals with Trichophyton mentagrophytes strain R 177. In words: method C: experimental dermatophytic infection in guinea pigs. The conditions noted are these: local treatment, 2% in Plastibase, twice daily for 10 days; scored on 14th day; grades 1-4; untreated animals 4. It is filed as in vivo. How it is done:
C. Testing of compounds against experimental dermatophytic infection. (Trichophyton mentagrophytes)
Out-bred blanco TNO female guinea pigs, five animals per group, weighing + 350 g, were prepared by depilation high in the middle of the back over an area 2.5 cm in diameter.
Inoculum was prepared from a culture of Trichophyton mentagrophytes strain R 177 on Mycological Agar. The harvested mycelial mat was diluted in a 20% dextrose solution in water and the suspension was smeared over the depilated area.
Local treatment with 2% concentration of the antimycotic in Plastibase started 72 hours after infection and concurrently the application of vehiculum (Plastibase) to the infected animals was initiated. The application was continued for 10 days and consisted of two applications daily of a measured quantity of ointment to the infected area.
Scoring of lesions and the final check was made on the 14th day after the infection was initiated. The lesions were graded as to the following parameters: • 1 = slight whitish scaling, with erythema • 2 = slight whitish or light yellow scaling with solitary haemorrhagias • 3 = thick whitish-yellow crust or scab • 4 = haemorrhagic ulcer or giant haemorrhagic thick scutula (crust).
The final results were recorded as the average of lesion intensities (A.L.I.) for each experimental group (treated with either test compound or reference compound and untreated control).

The mark [6] stands for this setting: 48 h, after 2 d, complete inhibition of 50% of the strains tested, read-out: MIC 50.
Where [7] appears, read: 48 h, after 2 d, complete inhibition of 90% of the strains tested, read-out: MIC 90.
Setting [8] is: 120 h, after 5 d, complete inhibition of 50% of the strains tested, read-out: MIC 50.
The mark [9] stands for this setting: 120 h, after 5 d, complete inhibition of 90% of the strains tested, read-out: MIC 90.
[10] abbreviates: local intravaginal treatment in Plastibase, two applications daily for four days.
The mark [11] stands for this setting: p.o., three doses daily for three days.

Converted amounts (≈) assume the structure as drawn. Where a name gives a salt, the structure may show the parent alone. Read-outs that look alike come from different tables or passages of the source.

Consider `CCCC(=Cn1ccnc1)c1ccc(Cl)cc1Cl.Cl` [I, 1-[2-(2,4-dichlorophenyl)-1-pentenyl]-1H-imidazol hydrochloride], for which the MIC50 stood at 3 ng/mL in assay [1] (setting [6]) and 4 ng/mL in assay [1] (setting [8]). Besides, the figures for the MIC90 in assay [1] (setting [7]) and in assay [1] (setting [9]) were 8 ng/mL and 9 ng/mL, respectively. Further, the “Potency Ratio (P.R.) MIC 50” value was found to be 1.0 in assay [1] (2 d), 1.0 in assay [1] (5 d) and 35.3 in assay [2]. Also, the “Potency Ratio (P.R.) MIC 90” value in assay [1] (2 d) is 1.2; in assay [1] (5 d), 0.7; in assay [2] it was 13.9. The entries for the “IMSD (Index Median Survival Duration)” value in assay [3] (i.p.) and in assay [3] (p.o.) were 1.4 and 3.0, respectively. This compound showed a vag.red. % in assay [4] (setting [10]) of 35%. Besides, in assay [5], the “A.L.I. (average of lesion intensities)” value turned out to be 0.
On to `CCC(C)C(=Cn1ccnc1)c1ccc(Cl)cc1` (stereo not shown) [II, 1-[2-(4-chlorophenyl)-3-methyl-1-pentenyl] -lH-imidazole], for which the MIC50 in assay [1] (setting [6]) is 2 ng/mL (≈ 0.00767 µM); in assay [1] (setting [8]) it was 4 ng/mL (≈ 0.0153 µM). For the same compound, the results for the MIC90 in assay [1] (setting [7]) and in assay [1] (setting [9]) were 5 ng/mL (≈ 0.0192 µM) and 6 ng/mL (≈ 0.023 µM), respectively. The “Potency Ratio (P.R.) MIC 50” value in assay [1] (2 d) is recorded as 1.7; in assay [1] (5 d) it was 1.2; in assay [2] it was 2.8. Moreover, the “Potency Ratio (P.R.) MIC 90” value was 1.7 in assay [1] (2 d), 1.9 in assay [1] (5 d) and 2.1 in assay [2]. In addition, the “IMSD (Index Median Survival Duration)” value in assay [3] (i.p.) was determined as 3.8; in assay [3] (p.o.), 4.6. In addition, the vag.red. % in assay [4] (setting [10]) was determined as 98%. Besides, the “A.L.I. (average of lesion intensities)” value in assay [5] came out at 0.
On to `CCC(C)C(=Cn1ccnc1)c1ccc(Cl)cc1Cl.Cl` (stereo not shown) [III, 1-[2-(2,4-Dichlorophenyl)-3-methyl-1-pentenyl]-1H-imidazole hydrochloride], for which the MIC50 in assay [1] (setting [6]) is 5 ng/mL; in assay [1] (setting [8]), 6 ng/mL. Also, the MIC90 came to 10 ng/mL in assay [1] (setting [7]) and 11 ng/mL in assay [1] (setting [9]). Besides, the “Potency Ratio (P.R.) MIC 50” value in assay [1] (2 d) was determined as 0.7; in assay [1] (5 d), 0.7; in assay [2], 1.7. Further, the “Potency Ratio (P.R.) MIC 90” value in assay [1] (2 d) worked out at 0.9; in assay [1] (5 d), 1.2; in assay [2], 0.8. Moreover, the “IMSD (Index Median Survival Duration)” value in assay [3] (i.p.) was 3.5; in assay [3] (p.o.), 4.1. This compound came in with a vag.red. % in assay [4] (setting [10]) of 136%. For the same compound, the “A.L.I. (average of lesion intensities)” value in assay [5] was determined as 0.
For the compound `CC(C)(C)C(=Cn1ccnc1)c1ccc(Cl)cc1Cl.O=[N+]([O-])O` [IV, 1-[2-(2,4-dichlorophenyl)-3,3-dimethyl-1-butenyl]-1H-imidazole nitrate], the results for the MIC50 in assay [1] (48 h) and in assay [1] (120 h) were 3 ng/mL and 5 ng/mL, respectively. Further, the values for the MIC90 in assay [1] (48 h) and in assay [1] (120 h) were 5 ng/mL and 11 ng/mL, respectively. In addition, the “Potency Ratio (P.R.) MIC 50” value came out at 0.7 in assay [1] (2 d), 0.5 in assay [1] (5 d) and 15.1 in assay [2]. Also, the entries for the “Potency Ratio (P.R.) MIC 90” value in assay [1] (2 d), in assay [1] (5 d) and in assay [2] were 0.9, 0.5 and 4.1, respectively. The “IMSD (Index Median Survival Duration)” value in assay [3] (i.p.) came out at 5.1; in assay [3] (p.o.) it was 3.1. In addition, the vag.red. % is 59% in assay [4] (setting [10]) and 24% in assay [4] (setting [11]). Moreover, the “A.L.I. (average of lesion intensities)” value in assay [5] came to 0.
Take `Clc1ccc(C(=Cn2ccnc2)C2CCCCC2)cc1` [V, 1-[2-(4-chlorophenyl)-2-cyclohexylethenyl] -lH-imidazole hydrochloride]: the results for the MIC50 in assay [1] (setting [6]) and in assay [1] (setting [8]) were 3 ng/mL and 5 ng/mL, respectively. The MIC90 in assay [1] (setting [7]) worked out at 8 ng/mL; in assay [1] (setting [9]), 10 ng/mL. Besides, the “Potency Ratio (P.R.) MIC 50” value in assay [1] (2 d) is listed as 1.3; in assay [1] (5 d) it was 1.1; in assay [2], 0.8. Further, the “Potency Ratio (P.R.) MIC 90” value in assay [1] (2 d) is given as 1.0; in assay [1] (5 d), 1.1; in assay [2], 0.6. Also, the figures for the “IMSD (Index Median Survival Duration)” value in assay [3] (i.p.) and in assay [3] (p.o.) were 3.5 and 4.1, respectively. The vag.red. % in assay [4] (setting [11]) is reported as 150 (p.o.) %.
As for `Clc1ccc(C(=Cn2ccnc2)C2CCCCC2)c(Cl)c1` [VI, 1-[2-cyclohexyl-2-(2,4-dichlorophenyl)ethenyl]-IH-imidazole hydrochloride], the MIC50 in assay [1] (setting [6]) is 4 ng/mL; in assay [1] (setting [8]) it was 5 ng/mL. The MIC90 in assay [1] (setting [7]) was determined as 8 ng/mL; in assay [1] (setting [9]), 11 ng/mL. In addition, the “Potency Ratio (P.R.) MIC 50” value in assay [1] (2 d) was determined as 0.9; in assay [1] (5 d) it was 0.8; in assay [2], 1.9. Also, the figures for the “Potency Ratio (P.R.) MIC 90” value in assay [1] (2 d), in assay [1] (5 d) and in assay [2] were 0.7, 0.6 and 1.0, respectively. Besides, the entries for the “IMSD (Index Median Survival Duration)” value in assay [3] (i.p.) and in assay [3] (p.o.) were 3.7 and 3.9, respectively. The vag.red. % in assay [4] (setting [10]) came to 97%; in assay [4] (setting [11]), 52%. In assay [5], the “A.L.I. (average of lesion intensities)” value worked out at 0.4.
